In US8071587B2, “(Dihydro)imidazoiso[5,1-A]quinolines” (N. V. Organon, priority 2009, dated 2011):
Counter-ions that a name gives are not always drawn.

molecular target: T1, human FSH receptor (Homo sapiens, UniProt P23945); test: Agonistic activity at the human FSH receptor expressed in CHO cells, CRE-luciferase reporter (hFSHRago CHO luc); assay type: cell-based; conditions: CHO cells stably transfected with human FSH receptor and CRE/luciferase reporter; 4 hours of incubation
T1 construct: expressed in transfected cells; host or cells: Chinese Hamster Ovary (CHO) cells, stably transfected, cotransfected with a CRE/promoter-firefly luciferase reporter
T1 sequence (P23945 18-695): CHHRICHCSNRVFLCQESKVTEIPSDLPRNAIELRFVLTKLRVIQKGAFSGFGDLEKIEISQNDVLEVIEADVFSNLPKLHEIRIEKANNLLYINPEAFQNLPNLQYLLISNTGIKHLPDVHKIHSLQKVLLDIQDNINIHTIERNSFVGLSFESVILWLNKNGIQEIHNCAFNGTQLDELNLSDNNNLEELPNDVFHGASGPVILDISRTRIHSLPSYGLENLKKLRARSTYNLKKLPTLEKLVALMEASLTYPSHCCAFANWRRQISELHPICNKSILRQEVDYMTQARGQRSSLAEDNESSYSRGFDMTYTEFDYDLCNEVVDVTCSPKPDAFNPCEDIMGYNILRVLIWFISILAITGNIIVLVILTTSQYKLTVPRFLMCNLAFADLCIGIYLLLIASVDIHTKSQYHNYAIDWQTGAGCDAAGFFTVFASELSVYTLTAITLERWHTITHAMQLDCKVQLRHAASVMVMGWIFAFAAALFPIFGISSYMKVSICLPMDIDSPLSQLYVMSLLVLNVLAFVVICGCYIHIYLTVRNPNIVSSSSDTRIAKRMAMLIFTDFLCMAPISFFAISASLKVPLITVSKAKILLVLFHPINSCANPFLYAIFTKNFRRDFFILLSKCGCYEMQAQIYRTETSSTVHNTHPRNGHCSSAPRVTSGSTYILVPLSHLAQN
From the text: The term EC50 means the concentration of the test compound that elicits half-maximal (50%) stimulation compared to the compound's maximally attainable effect. The values can be determined e.g. in a cell line transfected with a FSH receptor gene and cotransfected with a cAMP responsive element/promoter directing the expression of a reporter gene. Values can be determined using a software program such as MathIQ (version 2.0, ID Business Solutions Limited). Agonistic Activity of Compounds at the Human FSH Receptor Expressed in CHO Cells Agonistic activity of the compounds at the human FSH receptor was determined in Chinese Hamster Ovary (CHO) cells stably transfected with the human FSH receptor and cotransfected with a cAMP responsive element (CRE)/promotor directing the expression of a firefly luciferase reporter gene. Binding of the compounds to the Gs protein-coupled FSH receptor will result in an increase of cAMP, which in turn will induce an increased transactivation of the luciferase reporter. Cells (7,500 cells/well of a 384 well plate) were incubated in Dulbecco' minimal essential F12 modified medium (Invitrogen), supplemented with 1 μg/ml bovine insulin, 5 μg/ml human apo-transferrin, 80 U/ml penicillin G and 80 μg/ml streptomycin with the test compounds (concentration between 0.0316 nM and 10.0 μM) in duplicate in a humidified atmosphere (95%) at 5-7% CO2 and 37° C. The final concentration of DMSO was 1%. After 4 hours of incubation, plates were allowed to adjust to room temperature for 1 hour. Then, Luclite (PerkinElmer) solution was added to the wells and cells were allowed to lyse for at least 1 hour at room temperature. Subsequently, luciferase activity was measured in a luminescence counter. The signal is expressed as counts per second (cps). The EC50 (concentration of the test compound that elicits half-maximal (50%) luciferase stimulation compared to the compound's maximally attainable effect) and efficacy values (maximal effect of the test compound as percentage of the maximal effect of recombinant human FSH) of the compounds were determined using the software program MathIQ (version 2.0, ID Business Solutions Limited). EC50 data are indicated at the synthesis examples.

Row | SMILES | EC50
1 | COC1=CC2CCn3c(C(=O)N(C)C(C)(C)C)nc(-c4cccs4)c3C2C=C1c1cccnc1 (stereo not drawn) [Example 2a, 8-Methoxy-9-pyridin-3-yl-1-thiophen-2-yl-5,6,6a,10a-tetrahydro-imidazo[5,1-a]isoquinoline-3-carboxylic acid tert-butyl-methyl-amide] | 1 nM
2 | CCCCN1CCN(C(=O)c2nc(-c3cccs3)c3n2CCc2cc(OC)c(OC(C)C)cc2-3)CCC1=O [Example 27b, 4-Butyl-1-(9-isopropoxy-8-methoxy-1-thiophen-2-yl-5,6-dihydro-imidazo[5,1-a]isoquinoline-3-carbonyl)-[1,4]diazepan-5-one] | 0.6 nM
3 | C=CCN1CCN(C(=O)c2nc(-c3cccs3)c3n2CCc2cc(OC)c(OC(C)C)cc2-3)CCC1=O [Example 28, 4-Allyl-1-(9-isopropoxy-8-methoxy-1-thiophen-2-yl-5,6-dihydro-imidazo[5,1-a]isoquinoline-3-carbonyl)-[1,4]diazepan-5-one] | 3 nM

Further lines, results first:

Row | EC50 | SMILES
4 | 6.5 nM | COc1cc2ccn3c(C(=O)N(C)C(C)(C)C)nc(-c4cccs4)c3c2cc1OC(C)C [Example 15j, 9-Isopropoxy-8-methoxy-1-thiophen-2-yl-imidazo[5,1-a]isoquinoline-3-carboxylic acid tert-butyl-methyl-amide]
5 | 5 nM | CCn1nnc(-c2cc3c(cc2OC)CCn2c(C(=O)N(C)C(C)(C)C)nc(-c4cccs4)c2-3)n1 [Example 51c, 9-(2-Ethyltetrazol-5-yl-)-8-methoxy-1-thiophen-2-yl-5,6-dihydro-imidazo[5,1-a]isoquinoline-3-carboxylic acid tert-butyl-methyl-amide]

tested on: not given; test: not given; conditions: not given

Row | SMILES | melting point
6 | COc1cc2c(cc1NC(=O)c1nccs1)-c1c(-c3cccs3)nc(C(=O)N(C)C(C)(C)C)n1CC2 [Example 10, 8-Methoxy-9-[(thiazole-2-carbonyl)-amino]-1-thiophen-2-yl-5,6-dihydro-imidazo[5,1-a]isoquinoline-3-carboxylic acid tert-butyl-methyl-amide] | 185 to 186 °C
7 | COc1cc2c(cc1C=C(F)F)-c1c(-c3cccs3)nc(C(=O)N(C)C(C)(C)C)n1CC2 [Example 39, 9-(2,2-Difluoro-vinyl)-8-methoxy-1-thiophen-2-yl-5,6-dihydro-imidazo[5,1-a]isoquinoline-3-carboxylic acid tert-butyl-methyl-amide] | 154 to 155 °C
8 | COc1cc2c(cc1-c1cccc(N)c1)-c1c(-c3cccs3)nc(C(=O)N(C)C(C)(C)C)n1CC2 [Example 2k, 9-(3-Amino-phenyl)-8-methoxy-1-thiophen-2-yl-5,6-dihydro-imidazo[5,1-a]isoquinoline-3-carboxylic acid tert-butyl-methyl-amide] | 213 °C
9 | COc1cc2c(cc1-c1cccc(F)c1)-c1c(-c3cccs3)nc(C(=O)N(C)C(C)(C)C)n1CC2 [Example 2i, 9-(3-Fluoro-phenyl)-8-methoxy-1-thiophen-2-yl-5,6-dihydro-imidazo[5,1-a]isoquinoline-3-carboxylic acid tert-butyl-methyl-amide] | 165 °C
10 | COc1cc2c(cc1-c1cccc(N3CCOCC3)c1)-c1c(-c3cccs3)nc(C(=O)N(C)C(C)(C)C)n1CC2 [Example 2h, 8-Methoxy-9-(3-morpholin-4-yl-phenyl)-1-thiophen-2-yl-5,6-dihydro-imidazo[5,1-a]isoquinoline-3-carboxylic acid tert-butyl-methyl-amide] | 85 to 90 °C
11 | COc1cc2c(cc1Br)-c1c(-c3cccs3)nc(C(=O)N(C)C(C)(C)C)n1CC2 [Example 1j, 9-Bromo-8-methoxy-1-thiophen-2-yl-5,6-dihydro-imidazo[5,1-a]isoquinoline-3-carboxylic acid tert-butyl-methyl-amide] | 160 to 161 °C
12 | COc1cc2c(cc1-c1c(C)noc1C)-c1c(-c3cccs3)nc(C(=O)N(C)C(C)(C)C)n1CC2 [Example 2m, 9-(3,5-Dimethyl-isoxazol-4-yl)-8-methoxy-1-thiophen-2-yl-5,6-dihydro-imidazo[5,1-a]isoquinoline-3-carboxylic acid tert-butyl-methyl-amide] | 183 to 184 °C
13 | COc1cc2c(cc1-c1ccc3c(c1)OCO3)-c1c(-c3cccs3)nc(C(=O)N(C)C(C)(C)C)n1CC2 [Example 2r, 9-Benzo[1,3]dioxol-5-yl-8-methoxy-1-thiophen-2-yl-5,6-dihydro-imidazo[5,1-a]isoquinoline-3-carboxylic acid tert-butyl-methyl-amide] | 162 °C
14 | C=CCN1CCN(C(=O)c2nc(-c3cccs3)c3n2CCc2cc(OC)c(OC(C)C)cc2-3)CCC1=O (as salt: salt) [Example 28, 4-Allyl-1-(9-isopropoxy-8-methoxy-1-thiophen-2-yl-5,6-dihydro-imidazo[5,1-a]isoquinoline-3-carbonyl)-[1,4]diazepan-5-one] | 115 to 117 °C
15 | COc1cc2c(cc1CC(C)C)-c1c(-c3cncs3)nc(C(=O)N(C)C(C)(C)C)n1CC2 [Example 38, 9-Isobutyl-8-methoxy-1-thiazol-5-yl-5,6-dihydro-imidazo[5,1-a]isoquinoline-3-carboxylic acid tert-butyl-methyl-amide] | 144 to 145 °C
16 | COc1cc2c(cc1NC(=O)c1cccnc1)-c1c(-c3cccs3)nc(C(=O)N(C)C(C)(C)C)n1CC2 [Example 9, 8-Methoxy-9-[(pyridine-3-carbonyl)-amino]-1-thiophen-2-yl-5,6-dihydro-imidazo[5,1-a]isoquinoline-3-carboxylic acid tert-butyl-methyl-amide] | 159 to 161 °C

The next lines start with the values.

Row | melting point | SMILES
17 | 154 to 156 °C | COc1cc2c(cc1C(=O)Nc1nncs1)-c1c(-c3cccs3)nc(C(=O)N(C)C(C)(C)C)n1CC2 [Example 3e, 8-Methoxy-1-thiophen-2-yl-5,6-dihydro-imidazo[5,1-a]isoquinoline-3,9-dicarboxylic acid 3-(tert-butyl-methyl-amide) 9-[1,3,4]thiadiazol-2-ylamide]
18 | 112 to 114 °C | COc1cc2c(cc1OC(C)C)-c1c(-c3cncs3)nc(C(=O)N(C)C(C)(C)C)n1CC2 [Example 47e, 9-Isopropoxy-8-methoxy-1-thiazol-5-yl-5,6-dihydro-imidazo[5,1-a]isoquinoline-3-carboxylic acid tert-butyl-methyl-amide]
19 | 163 to 164 °C | COc1cc2ccn3c(C(=O)N(C)C(C)(C)C)nc(-c4cccs4)c3c2cc1OC(C)C [Example 15j, 9-Isopropoxy-8-methoxy-1-thiophen-2-yl-imidazo[5,1-a]isoquinoline-3-carboxylic acid tert-butyl-methyl-amide]
20 | 111 to 112 °C | CCOc1ccc2c(c1)CCn1c(C(=O)N(C)C(C)(C)C)nc(-c3cccs3)c1-2 [Example 40c, 8-Ethoxy-1-thiophen-2-yl-5,6-dihydro-imidazo[5,1-a]isoquinoline-3-carboxylic acid tert-butyl-methyl-amide]
21 | 147 to 148 °C | COc1cc2c(cc1CC(C)C)-c1c(-c3ncco3)nc(C(=O)N(C)C(C)(C)C)n1CC2 [Example 37f, 9-Isobutyl-8-methoxy-1-oxazol-2-yl-5,6-dihydro-imidazo[5,1-a]isoquinoline-3-carboxylic acid tert-butyl-methyl-amide]
